This passage reports IC50 results from patent US8901133B2, “Heterocyclic compounds and uses thereof” (Infinity Pharmaceuticals, Inc., priority 2010, dated 2014).

pIC50: −log10 of the molar value.

In one test the target is T1, PI3Kδ (Homo sapiens, UniProt O00329).
T1 construct: purchased Millipore Corporation 14-604-K
Briefly: PI3 Kinase HTRF assay, PI3Kδ. The note with it: 10 μM PIP2, 10 μM ATP; read-out: PI3K δ IC50. The class given is biochemical. Put shortly:
(§1)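 Enzyme 0.25-0.3 ug/ml + 10 uM PIP2 + compound (2% DMSO), 15 min RT; add ATP to 10 μM, 1 h RT; stop, add detection mix, 1 h RT; TR-FRET read. IC50 by nonlinear regression.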
In general terms: In TR-FRET formats the signal depends on donor and acceptor labels being close together.

For a further test, the target named is T2, PI3Kγ (Homo sapiens, UniProt P48736).
T2 construct: purchased Millipore Corporation 14-558-K
T2 sequence (P48736 whole entry): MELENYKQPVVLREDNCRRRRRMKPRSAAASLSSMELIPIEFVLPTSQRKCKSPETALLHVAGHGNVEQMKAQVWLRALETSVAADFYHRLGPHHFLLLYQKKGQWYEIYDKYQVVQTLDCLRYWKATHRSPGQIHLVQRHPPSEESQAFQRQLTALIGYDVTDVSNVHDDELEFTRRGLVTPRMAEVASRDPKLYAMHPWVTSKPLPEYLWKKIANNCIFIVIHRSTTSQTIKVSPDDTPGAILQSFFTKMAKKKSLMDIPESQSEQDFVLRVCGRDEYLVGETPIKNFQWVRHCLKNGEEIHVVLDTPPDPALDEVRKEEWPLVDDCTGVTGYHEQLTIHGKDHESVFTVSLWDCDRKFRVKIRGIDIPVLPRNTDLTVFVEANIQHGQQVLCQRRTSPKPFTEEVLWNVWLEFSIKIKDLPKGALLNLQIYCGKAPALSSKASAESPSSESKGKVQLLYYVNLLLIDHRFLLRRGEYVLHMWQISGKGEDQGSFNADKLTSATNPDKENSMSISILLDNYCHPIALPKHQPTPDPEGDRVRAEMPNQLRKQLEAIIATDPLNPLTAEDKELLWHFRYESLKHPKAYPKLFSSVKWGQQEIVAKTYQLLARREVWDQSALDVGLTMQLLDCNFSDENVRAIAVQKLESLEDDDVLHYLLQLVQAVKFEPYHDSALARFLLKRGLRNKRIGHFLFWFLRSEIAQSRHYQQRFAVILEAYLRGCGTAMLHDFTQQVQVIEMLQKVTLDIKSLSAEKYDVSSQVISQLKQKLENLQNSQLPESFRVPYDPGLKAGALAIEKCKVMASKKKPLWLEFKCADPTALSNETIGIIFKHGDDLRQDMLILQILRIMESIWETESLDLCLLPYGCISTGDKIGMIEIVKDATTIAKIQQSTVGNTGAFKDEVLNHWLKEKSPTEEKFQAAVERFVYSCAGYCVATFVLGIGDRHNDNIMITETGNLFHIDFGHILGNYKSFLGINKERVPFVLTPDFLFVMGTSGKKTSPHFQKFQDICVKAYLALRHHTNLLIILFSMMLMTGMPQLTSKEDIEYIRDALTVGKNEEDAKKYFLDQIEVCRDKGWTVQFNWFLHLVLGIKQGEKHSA
Description: PI3 Kinase HTRF assay, PI3Kγ. The class given is biochemical. The note with it: 10 μM PIP2, 10 μM ATP; read-out: PI3K γ IC50. Summed up: as §1

Another test has as its target T3, PI3Kα (Homo sapiens, UniProt P42336).
T3 construct: purchased Millipore Corporation 14-602-K
Description: PI3 Kinase HTRF assay, PI3Kα. To be noted: 10 μM PIP2, 10 μM ATP; read-out: PI3K α IC50. Type of test: biochemical. Summed up:
as §1

A further test deals with T4, PI3Kβ (Homo sapiens, UniProt P42338).
T4 construct: purchased Millipore Corporation 14-603-K
T4 sequence (P42338 whole entry): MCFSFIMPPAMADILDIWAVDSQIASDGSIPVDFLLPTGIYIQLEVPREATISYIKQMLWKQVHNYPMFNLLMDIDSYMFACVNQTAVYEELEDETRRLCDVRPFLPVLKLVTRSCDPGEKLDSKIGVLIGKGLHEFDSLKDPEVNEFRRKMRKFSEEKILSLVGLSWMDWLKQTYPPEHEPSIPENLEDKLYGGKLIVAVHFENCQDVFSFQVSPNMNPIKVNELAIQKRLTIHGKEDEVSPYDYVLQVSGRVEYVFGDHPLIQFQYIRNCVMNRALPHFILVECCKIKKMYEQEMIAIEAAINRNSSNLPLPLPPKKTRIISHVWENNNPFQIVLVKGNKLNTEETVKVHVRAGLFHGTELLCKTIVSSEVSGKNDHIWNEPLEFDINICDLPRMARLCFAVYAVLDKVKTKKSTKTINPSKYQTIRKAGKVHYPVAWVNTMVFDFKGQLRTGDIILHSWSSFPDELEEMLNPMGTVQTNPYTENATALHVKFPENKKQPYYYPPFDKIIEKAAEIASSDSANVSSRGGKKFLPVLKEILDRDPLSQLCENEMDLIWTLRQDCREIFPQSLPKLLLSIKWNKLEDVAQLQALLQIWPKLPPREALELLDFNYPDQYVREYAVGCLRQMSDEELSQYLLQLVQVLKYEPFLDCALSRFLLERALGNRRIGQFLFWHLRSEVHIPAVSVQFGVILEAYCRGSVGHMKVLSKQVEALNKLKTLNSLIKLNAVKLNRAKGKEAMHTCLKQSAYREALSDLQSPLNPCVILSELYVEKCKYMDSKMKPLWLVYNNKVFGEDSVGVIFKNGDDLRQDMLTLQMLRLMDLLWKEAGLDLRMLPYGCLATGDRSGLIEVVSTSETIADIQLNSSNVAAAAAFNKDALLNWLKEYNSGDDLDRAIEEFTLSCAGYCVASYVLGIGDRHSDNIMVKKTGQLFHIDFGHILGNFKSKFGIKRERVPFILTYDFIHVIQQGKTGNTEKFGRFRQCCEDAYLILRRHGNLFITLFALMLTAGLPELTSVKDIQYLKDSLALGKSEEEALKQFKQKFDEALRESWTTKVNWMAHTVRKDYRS
T4 sequence (P27986 whole entry partner): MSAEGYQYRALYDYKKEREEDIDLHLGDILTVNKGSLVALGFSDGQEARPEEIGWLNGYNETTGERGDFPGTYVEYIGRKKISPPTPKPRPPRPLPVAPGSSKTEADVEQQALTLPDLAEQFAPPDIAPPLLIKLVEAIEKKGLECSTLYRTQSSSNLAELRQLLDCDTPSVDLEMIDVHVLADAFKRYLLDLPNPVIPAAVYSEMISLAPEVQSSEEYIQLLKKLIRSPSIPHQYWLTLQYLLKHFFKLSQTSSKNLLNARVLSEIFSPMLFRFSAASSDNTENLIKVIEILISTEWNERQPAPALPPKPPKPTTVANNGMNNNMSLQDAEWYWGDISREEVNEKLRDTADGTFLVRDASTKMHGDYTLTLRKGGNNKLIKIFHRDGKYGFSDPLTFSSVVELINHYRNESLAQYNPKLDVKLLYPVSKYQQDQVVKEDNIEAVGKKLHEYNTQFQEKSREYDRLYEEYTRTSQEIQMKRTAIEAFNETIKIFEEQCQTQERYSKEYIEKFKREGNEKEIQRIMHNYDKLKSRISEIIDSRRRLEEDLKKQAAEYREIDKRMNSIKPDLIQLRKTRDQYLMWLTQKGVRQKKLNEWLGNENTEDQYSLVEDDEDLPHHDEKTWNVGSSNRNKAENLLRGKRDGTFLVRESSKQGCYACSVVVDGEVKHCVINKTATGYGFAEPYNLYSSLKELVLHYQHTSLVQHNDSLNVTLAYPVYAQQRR
Description: PI3 Kinase HTRF assay, PI3Kβ. To be noted: 10 μM PIP2, 10 μM ATP; read-out: PI3K β IC50. The class given is biochemical. Summed up: as §1

A further test relates to Balb/c splenic B cells. Briefly: B cell activation and proliferation assay (Alamar Blue). The class given is cell-based. To be noted: Mus musculus, read-out: B cell prolif. IC50. The method, then:
The ability of one or more subject compounds to inhibit B cell activation and proliferation is determined according to standard procedures known in the art. For example, an in vitro cellular proliferation assay is established that measures the metabolic activity of live cells. The assay is performed in a 96 well microtiter plate using Alamar Blue reduction. Balb/c splenic B cells are purified over a Ficoll-Paque™ PLUS gradient followed by magnetic cell separation using a MACS B cell Isolation Kit (Miletenyi). Cells are plated in 90 ul at 50,000 cells/well in B Cell Media (RPMI+10% FBS+Penn/Strep+50 uM bME+5 mM HEPES). A compound disclosed herein is diluted in B Cell Media and added in a 10 μl volume. Plates are incubated for 30 min at 37 C and 5% CO2 (0.2% DMSO final concentration). A 50 μl B cell stimulation cocktail is then added containing either 10 ug/ml LPS or 5 ug/ml F(ab′)2 Donkey anti-mouse IgM plus 2 ng/ml recombinant mouse IL4 in B Cell Media. Plates are incubated for 72 hours at 37° C. and 5% CO2. A volume of 15 μl of Alamar Blue reagent is added to each well and plates are incubated for 5 hours at 37 C and 5% CO2. Alamar Blue fluoresce is read at 560Ex/590Em, and IC50 or EC50 values are calculated using GraphPad Prism 5.
Background: Alamar Blue is a resazurin reagent that responds to reducing activity.

T3 sequence (P42336 whole entry): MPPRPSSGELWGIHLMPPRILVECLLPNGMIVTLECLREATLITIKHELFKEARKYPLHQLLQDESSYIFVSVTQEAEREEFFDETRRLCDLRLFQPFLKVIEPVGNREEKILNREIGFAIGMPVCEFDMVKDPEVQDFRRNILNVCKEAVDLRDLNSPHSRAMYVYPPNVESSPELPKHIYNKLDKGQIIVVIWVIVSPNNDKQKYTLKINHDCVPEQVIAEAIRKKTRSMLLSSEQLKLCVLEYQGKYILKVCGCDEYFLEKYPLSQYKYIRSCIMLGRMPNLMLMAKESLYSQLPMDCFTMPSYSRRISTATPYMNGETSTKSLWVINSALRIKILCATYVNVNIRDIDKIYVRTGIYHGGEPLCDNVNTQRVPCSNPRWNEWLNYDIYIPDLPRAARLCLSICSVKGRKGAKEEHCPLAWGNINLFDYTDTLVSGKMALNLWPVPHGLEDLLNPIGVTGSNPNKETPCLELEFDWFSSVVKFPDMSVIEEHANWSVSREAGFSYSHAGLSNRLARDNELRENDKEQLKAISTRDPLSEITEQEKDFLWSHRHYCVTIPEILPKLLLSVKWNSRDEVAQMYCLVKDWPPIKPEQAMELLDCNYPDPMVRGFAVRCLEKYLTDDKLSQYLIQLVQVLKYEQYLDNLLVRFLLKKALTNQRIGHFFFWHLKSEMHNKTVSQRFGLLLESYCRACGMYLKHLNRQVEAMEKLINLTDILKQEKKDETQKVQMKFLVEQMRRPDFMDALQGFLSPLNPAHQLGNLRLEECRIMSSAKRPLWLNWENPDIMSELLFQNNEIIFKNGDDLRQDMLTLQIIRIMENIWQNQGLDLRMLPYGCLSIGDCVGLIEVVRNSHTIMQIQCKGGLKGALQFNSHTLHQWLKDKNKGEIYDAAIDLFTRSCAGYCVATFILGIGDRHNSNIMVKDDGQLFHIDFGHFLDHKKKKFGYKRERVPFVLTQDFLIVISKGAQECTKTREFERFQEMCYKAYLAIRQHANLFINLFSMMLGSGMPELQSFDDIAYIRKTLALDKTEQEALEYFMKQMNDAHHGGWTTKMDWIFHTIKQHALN
T3 sequence (P27986 whole entry partner): as the sequence (P27986 whole entry partner) above
T1 sequence (O00329 whole entry): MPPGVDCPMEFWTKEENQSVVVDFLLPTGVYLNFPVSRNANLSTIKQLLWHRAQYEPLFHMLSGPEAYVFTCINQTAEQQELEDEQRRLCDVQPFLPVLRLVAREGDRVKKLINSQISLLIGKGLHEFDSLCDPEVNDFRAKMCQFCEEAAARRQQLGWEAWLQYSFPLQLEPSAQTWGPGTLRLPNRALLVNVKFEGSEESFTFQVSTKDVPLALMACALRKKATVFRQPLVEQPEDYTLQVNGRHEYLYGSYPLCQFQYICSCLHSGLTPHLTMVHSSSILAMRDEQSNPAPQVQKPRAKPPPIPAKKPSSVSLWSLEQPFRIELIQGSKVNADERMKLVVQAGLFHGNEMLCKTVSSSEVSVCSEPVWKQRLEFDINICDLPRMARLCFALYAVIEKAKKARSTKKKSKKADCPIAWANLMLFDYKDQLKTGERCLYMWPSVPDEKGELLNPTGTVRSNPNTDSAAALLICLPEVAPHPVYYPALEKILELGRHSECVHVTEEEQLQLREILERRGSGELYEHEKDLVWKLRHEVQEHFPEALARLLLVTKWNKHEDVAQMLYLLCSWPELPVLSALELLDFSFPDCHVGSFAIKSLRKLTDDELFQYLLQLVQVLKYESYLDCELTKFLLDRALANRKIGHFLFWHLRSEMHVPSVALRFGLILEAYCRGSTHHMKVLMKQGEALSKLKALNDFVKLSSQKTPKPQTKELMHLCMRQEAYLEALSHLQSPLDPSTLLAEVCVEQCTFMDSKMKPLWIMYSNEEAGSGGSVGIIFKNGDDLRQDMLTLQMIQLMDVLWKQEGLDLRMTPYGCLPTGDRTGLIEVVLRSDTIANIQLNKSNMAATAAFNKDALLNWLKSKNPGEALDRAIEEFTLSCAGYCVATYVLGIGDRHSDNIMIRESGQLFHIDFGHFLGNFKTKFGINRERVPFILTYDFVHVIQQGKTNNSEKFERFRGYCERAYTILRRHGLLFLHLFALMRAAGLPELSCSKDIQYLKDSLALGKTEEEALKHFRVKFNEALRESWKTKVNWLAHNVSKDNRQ
T1 sequence (P27986 whole entry partner): as the sequence (P27986 whole entry partner) above

Usually pIC50 stands for −log10 of the IC50, conventionally taken in molar units. Regarding `C[C@H](Nc1ncnc2[nH]cnc12)c1cc2cccc(Cl)c2c(C(=O)NC2CCC2)n1` [Compound 23], the pIC50 at PI3Kδ was above 7.00; at PI3Kγ, above 5.00; at PI3Kα, below 5.00; at PI3Kβ it was below 5.00; in the test on Balb/c splenic B cells, above 7.00.

On to `C[C@H](Nc1ncnc2[nH]cnc12)c1cc2cccc(Cl)c2c(C(=O)N2CCC2)n1` [Compound 24], for which the pIC50 on PI3Kδ was above 6.00; on PI3Kγ it was above 5.00; at PI3Kα, below 5.00; on PI3Kβ it was above 5.00; in the test with Balb/c splenic B cells, above 6.00.

For the compound `C[C@H](Nc1ncnc2[nH]cnc12)c1cc2cccc(Cl)c2c(C(=O)Nc2ccccc2)n1` [Compound 25], the pIC50 is above 7.00 on PI3Kδ; above 5.00 on PI3Kγ; below 5.00 on PI3Kα; above 5.00 on PI3Kβ; above 6.00 in the test with Balb/c splenic B cells.

For `C[C@H](Nc1ncnc2[nH]cnc12)c1cc2cccc(Cl)c2c(C(=O)NCc2ccccc2)n1` [Compound 26], the negative logarithm of the IC50 (pIC50) at PI3Kδ was above 7.00; on PI3Kγ, above 6.00; at PI3Kα, below 5.00; on PI3Kβ it was above 5.00; in the test with Balb/c splenic B cells, above 7.00.

As for `C[C@H](Nc1ncnc2[nH]cnc12)c1cc2cccc(Cl)c2c(CC(=O)N2CCCC2)n1` [Compound 36], the pIC50 at PI3Kδ was above 7.00; on PI3Kγ, above 5.00; on PI3Kα, below 5.00; on PI3Kβ, above 5.00; in the test with Balb/c splenic B cells, above 6.00.

On to `C[C@H](Nc1ncnc2[nH]cnc12)c1cc2cccc(Cl)c2c(CC(=O)N2CCN(C)CC2)n1` [Compound 37], for which the pIC50 at PI3Kδ is above 6.00; on PI3Kγ it was below 5.00; on PI3Kα it was below 5.00; at PI3Kβ, below 5.00; with Balb/c splenic B cells, above 6.00.

Take `CC(=O)NCCOc1nc([C@H](C)Nc2ncnc3[nH]cnc23)cc2cccc(Cl)c12` [Compound 40, (S)—N-(2-(3-(1-(9H-purin-6-ylamino)ethyl)-8-chloroisoquinolin-1-yloxy)ethyl)acetamide]: the pIC50 on PI3Kδ is above 7.00; on PI3Kγ it was above 6.00; on PI3Kα it was above 5.00; on PI3Kβ, above 5.00; with Balb/c splenic B cells, above 7.00.

Consider `C[C@H](Nc1ncnc2[nH]cnc12)c1cc2cccc(Cl)c2c(OCC(=O)N2CCN(C)CC2)n1` [Compound 42], for which the negative-log IC50 (pIC50) is above 7.00 at PI3Kδ; below 5.00 on PI3Kγ; below 5.00 on PI3Kα; above 5.00 at PI3Kβ; above 6.00 in the test with Balb/c splenic B cells.

In the case of `C[C@H](Nc1ncnc2[nH]cnc12)c1cc2cccc(Cl)c2c(OCC(=O)N2CCOCC2)n1` [Compound 43], the negative-log IC50 (pIC50) on PI3Kδ was above 7.00; at PI3Kγ, above 6.00; at PI3Kα, above 5.00; on PI3Kβ, below 5.00; in the test with Balb/c splenic B cells, above 7.00.

For `CNC(=O)COc1nc([C@H](C)Nc2ncnc3[nH]cnc23)cc2cccc(Cl)c12` [Compound 44], the pIC50 at PI3Kδ is above 7.00; at PI3Kγ, above 6.00; at PI3Kα, above 5.00; on PI3Kβ, above 5.00; in the test on Balb/c splenic B cells, above 6.00.

In the case of `C[C@H](Nc1ncnc2[nH]cnc12)c1cc2cccc(Cl)c2c(OCC(=O)N2CCCC2)n1` [Compound 45], the pIC50 at PI3Kδ was above 7.00; on PI3Kγ it was above 5.00; at PI3Kα it was below 5.00; at PI3Kβ it was below 5.00; in the test with Balb/c splenic B cells it was above 6.00.

As to `C[C@H](Nc1ncnc2[nH]cnc12)c1cc2cccc(Cl)c2c(N2CCN(C)CC2)n1` [Compound 46, (S)—N-(1-(8-chloro-1-(4-methylpiperazin-1-yl)isoquinolin-3-yl)ethyl)-9H-purin-6-amine], the pIC50 on PI3Kδ was above 7.00; at PI3Kγ, below 5.00; at PI3Kα it was below 5.00; at PI3Kβ it was above 5.00; in the test with Balb/c splenic B cells it was above 7.00.
